Test results as given in patent publication US20220267753A1, “RATIONAL THERAPEUTIC TARGETING OF ONCOGENIC IMMUNE SIGNALING STATES IN MYELOID MALIGNANCIES VIA THE UBIQUITIN CONJUGATING ENZYME UBE2N” (CHILDREN'S HOSPITAL MEDICAL CENTER, priority 2019, published 2022).

Legend:
MOLM-13 cells = assay: Trypan blue viability and Caspase 3 cleavage immunoblot; format: cell-based, human
Experimental: AML cell lines (5×10^3 cells/well) were seeded in 96-well plates and grown for 24 to 96 h in serum (10%)-containing medium in the presence or absence of inhibitors at the indicated concentrations. Proliferation was analyzed by means of an MTS assay using the CellTiter 96 Aqueous One Solution Cell Proliferation Assay (Promega, Madison, Wis., USA), according to the manufacturer's instructions. Data are mean with standard deviation from three independent experiments in technical triplicates. For the screening of 160 compounds from the UC library, the cell metabolic activity was assessed at 24 hours of treatment of MOLM-13 cells. Top 15 candidates were re-screened at 2 μM, and the cell metabolic activity was determined at 24 hours of treatment. In certain experiments, cell viability was determined by staining the cells with trypan blue at a 1/2 dilution and counting total number of viable cells upon treatment with UC-764864 or DMSO control. The cells were counted daily for 4 days using an automated cell counter (Countess II FL from Life Technologies). […] UC-764864 was added at the indicated concentrations and cells were incubated with drug for 3 days, at which point cell viability was measured by MTS according to manufacturer's instructions. […]

THP-1 cells = assay: Colony formation assay of THP-1 cells with shControl or shUBE2N; format: cell-based, human
Source text: For knockdown studies, UBE2N shRNA template oligonucleotides from the TRC shRNA library cloned into the pLKO.1 TRC cloning vector (Addgene: #10878) and pLKO.1 TRC cloning vector (Table 3). The puromycin gene in pLKO.1 was replaced with GFP. pLKO.1 TRC control was used as non-silencing control (Addgene: #10879). For production of lentiviral particles, lentiviral shRNA expression constructs were transfected together with packaging vectors into 293T producer cells using TransIT transfection reagent (Mirus, MIR 2306), supernatants were harvested after 48 and 72 hours, and concentrated by ultracentrifugation. […] UBE2N knockdown efficiency was determined by quantitative real time PCR (qRT-PCR) and western blot and quantified as described elsewhere. […] Levels of overexpression of UBE2N were determined by western blot.
In order to determine viability after UBE2N knockdown or inhibition, 1×10^6 AML cells were washed with PBS and mixed with pre-diluted APC-conjugated Annexin V (BD Pharmigen, Franklin Lakes, N.J.) and Propidium iodide (PI) (Invitrogen ThermoFisher 00-6990-42, Waltham, Mass.). […] Colonies were scored after 7 days in culture. […] Colonies were scored at 7 days. […] Colonies were manually scored at 14-16 days after plating or counted with STEMVision (StemCell Technologies, Vancouver, CA).

[1] = test system: patient-derived AML cells; assay: Patient-derived xenografts (PDX) in NSGS mice; format: in vivo

| SMILES | apoptosis (trypan blue uptake, cleavage of Caspase 3) (MOLM-13 cells) | leukemic colony formation of THP-1 cells following knockdown of UBE2N (THP-1 cells) | leukemic progenitor function (colony formation) of THP-1-shControl cells (THP-1 cells) | leukemic burden of mice xenografted with UBE2N-resistant sample AML-JM60 ([1]; 25 mg/kg IP) | total and ubiquitinated UBE2N in BM cells of mice xenografted with AML-JM40 ([1]; 25 mg/kg, vs vehicle, immunoblot) | reduction in leukemic burden of UBE2N-sensitive AML cells in the BM ([1]; JM7, JM40, JM26, 25 mg/kg IP, P=0.008) |
| --- | --- | --- | --- | --- | --- | --- |
| CCc1ccc(C(=O)C=CSc2nc3ccc(C)cc3[nH]2)cc1 [UC-764864, 1-(4-ethylphenyl)-3-[(6-methyl-1H-benzimidazol-2-yl)sulfanyl]prop-2-en-1-one] | increase in apoptosis | did not significantly further suppress | significantly repressed | – | – | – |
| COc1ccc(C(=O)C=CSc2nc3ccc(C)cc3[nH]2)cc1 [UC-764865, 1-(4-methoxyphenyl)-3-[(6-methyl-1H-benzimidazol-2-yl)sulfanyl]prop-2-en-1-one] | – | – | – | did not decrease | reduced | 30-60% |
